pEC50: −log10 of the molar value.
Target: T1, mAChR M4 (Homo sapiens, UniProt P08173)
T1 construct: expressed in transfected cells; host or cells: CHO-K1 cells stably transfected with M4 cDNA and chimeric G-protein Gqi5
T1 sequence (P08173 1-479): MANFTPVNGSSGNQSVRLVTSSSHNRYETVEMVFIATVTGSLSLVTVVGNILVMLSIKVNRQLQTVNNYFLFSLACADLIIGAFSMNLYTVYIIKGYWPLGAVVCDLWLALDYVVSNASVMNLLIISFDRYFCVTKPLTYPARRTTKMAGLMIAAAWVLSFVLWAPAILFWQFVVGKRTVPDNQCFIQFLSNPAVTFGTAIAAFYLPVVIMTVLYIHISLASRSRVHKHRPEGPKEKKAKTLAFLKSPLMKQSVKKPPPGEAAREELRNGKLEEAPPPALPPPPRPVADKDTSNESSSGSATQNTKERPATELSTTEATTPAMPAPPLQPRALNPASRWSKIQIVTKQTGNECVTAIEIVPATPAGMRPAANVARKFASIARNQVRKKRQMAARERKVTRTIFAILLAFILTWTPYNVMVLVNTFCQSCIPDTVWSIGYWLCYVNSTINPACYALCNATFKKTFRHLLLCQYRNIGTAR
Test: mAChR M4 cell-based functional assay (calcium mobilization, potentiation of EC20 acetylcholine response)
Conditions: for Emax at 30 µM: % ACh maximum at 30 μM; for pEC50: mAChR M4 cell-based functional assay, >10,000 estimated for low potency compounds without plateau, read-out: EC50

| Structure (SMILES) | Emax at 30 µM [%] | pEC50 |
| --- | --- | --- |
| Cc1nnc2sc(C(=O)NCc3ccc(-c4cc(F)nc(F)c4)cc3)c(N)c2c1C [Example B455] | 64 | 7.57 |
| COc1c(F)cc(CNC(=O)c2sc3nnc(C)c(C)c3c2N)cc1F [Example B313] | 84 | 7.74 |
| Cc1nnc2sc(C(=O)N3CC(c4ccccc4)C3)c(N)c2c1C [Example B116] | 75 | 6.80 |
| Cc1nnc2sc(C(=O)N3CC[C@H](F)C3)c(N)c2c1C [Example B69] | 48 | < 5.00 |
| Cc1nnc2sc(C(=O)NC3CN(S(=O)(=O)c4cn(C)cn4)C3)c(N)c2c1C [Example B136] | 72 | 6.00 |
| Cc1nnc2sc(C(=O)NC3CN(C(=O)Nc4ccc(OC(F)F)cc4)C3)c(N)c2c1C [Example B363] | 74 | 7.57 |
| Nc1c(C(=O)NCc2cccc(F)c2F)sc2nnccc12 [Example B18] | 60 | < 5.00 |
| Cc1nnc2sc(C(=O)N3CC(F)(c4ccc(-c5cccnc5)cc4)C3)c(N)c2c1C [Example B320] | 42 | 6.89 |
| Cc1nnc2sc(C(=O)N3CCC(NS(=O)(=O)c4cccc(F)c4)C3)c(N)c2c1C (centres unmarked) [Example B211] | 70 | 5.85 |
| COc1ccc(CNC(=O)c2sc3nnc(C)c(C)c3c2N)cc1C(F)(F)F [Example B171] | 71 | 7.64 |
| COc1ncc(-c2ccc(CNC(=O)c3sc4nnc(C)c(C)c4c3N)cc2)cn1 [Example B485] | 58 | 7.32 |
| Cc1nnc2sc(C(=O)Nc3ccccn3)c(N)c2c1C [Example B36] | 29 | 5.77 |
| Cc1nnc2sc(C(=O)N3CC(S(=O)(=O)c4ccc(F)cc4F)C3)c(N)c2c1C [Example B432] | 40 | 6.09 |
| Cc1nnc2sc(C(=O)NC3CN(c4ncc(Br)cn4)C3)c(N)c2c1C [Example B429] | 67 | 7.64 |
| Cc1nnc2sc(C(=O)NC3CN(C(=O)N(C)c4ccccc4)C3)c(N)c2c1C [Example B423] | 59 | 7.28 |
| Cc1nnc2sc(C(=O)NC3CN(S(=O)(=O)c4cccc5c4OCCC5)C3)c(N)c2c1C [Example B143] | 90 | 6.92 |
| Cc1nnc2sc(C(=O)N3CC(O)(c4ccccc4)C3)c(N)c2c1C [Example B179] | 33 | 6.04 |
| CCc1ccc(CNC(=O)c2sc3nnc(C)c(C)c3c2N)cc1 [Example B395] | 71 | 7.33 |
| Cc1nnc2sc(C(=O)N3CC(C4CCCCC4)C3)c(N)c2c1C [Example B262] | 66 | 7.30 |
| Cc1nnc2sc(C(=O)NCc3cccc(F)c3F)c(N)c2c1C [Example B15] | 97 | 7.00 |
| Cc1nnc2sc(C(=O)NC3CCN(C(=O)Cc4ccccc4)C3)c(N)c2c1C (centres unmarked) [Example B235] | 72 | 6.44 |
| Cc1nnc2sc(C(=O)NC3CCN(c4ccccc4OC(F)(F)F)C3)c(N)c2c1C (centres unmarked) [Example B282] | 80 | 6.66 |

| Structure (SMILES) | Emax at 30 µM [%] | pEC50 |
| --- | --- | --- |
| Cc1ccc(S(=O)(=O)NC2CN(C(=O)c3sc4nnc(C)c(C)c4c3N)C2)cc1 [Example B183] | 47 | 6.31 |
| Cc1nnc2sc(C(=O)N3CC4CN(C5CCCC5)CC4C3)c(N)c2c1C (centres unmarked) [Example B286] | 19 | 5.32 |
| COc1ccc(CNC(=O)c2sc3nnc(C)c(C)c3c2N)cc1Br [Example B482] | 67 | 7.06 |
| Cc1nnc2sc(C(=O)NCc3ccc(-c4ccncc4)cc3)c(N)c2c1C [Example B457] | 75 | 7.72 |
| Cc1nnc2sc(C(=O)N3CCC(NC(=O)c4ccccc4)C3)c(N)c2c1C (centres unmarked) [Example B246] | 78 | 5.34 |
| Cc1nnc2sc(C(=O)NCc3cccc(F)c3)c(N)c2c1C [Example B7] | 97 | 6.85 |
| Cc1nnc2sc(C(=O)NCc3ccc(S(=O)(=O)CCO[Si](c4ccccc4)(c4ccccc4)C(C)(C)C)cc3)c(N)c2c1C [Example B335] | 74 | 6.05 |
| Cc1cccc(S(=O)(=O)N2CC(NC(=O)c3sc4nnc(C)c(C)c4c3N)C2)c1 [Example B138] | 65 | 7.24 |
| Cc1nnc2sc(C(=O)NC3CCN(c4ccccc4)C3)c(N)c2c1C (centres unmarked) [Example B113] | 66 | 7.62 |
| COc1ccccc1C1(OC)CN(C(=O)c2sc3nnc(C)c(C)c3c2N)C1 [Example B294] | 43 | 5.96 |
| Cc1nnc2sc(C(=O)N3CC(NCc4cccnc4)C3)c(N)c2c1C [Example B62] | 34 | < 5.00 |
| Cc1nnc2sc(C(=O)NCc3ccc(-c4ccc(F)nc4)cc3)c(N)c2c1C [Example B459] | 88 | 7.82 |
| Cc1nnc2sc(C(=O)NC3CCN(C(=O)Oc4ccccc4)C3)c(N)c2c1C (centres unmarked) [Example B203] | 74 | 7.00 |
| Cc1nnc2sc(C(=O)NC3CN(C(=O)Nc4ccc(C(C)C)cc4)C3)c(N)c2c1C [Example B349] | 71 | 7.59 |
| Cc1nnc2sc(C(=O)N3CCC(NS(=O)(=O)CCCc4ccccc4)C3)c(N)c2c1C (centres unmarked) [Example B234] | 50 | 6.09 |
| COc1ccc(S(=O)(=O)C2CN(C(=O)c3sc4nnc(C)c(C)c4c3N)C2)cc1 [Example B417] | 46 | 6.12 |
| Cc1nnc2sc(C(=O)N3CC(Sc4ccc(F)cc4F)C3)c(N)c2c1C [Example B419] | 56 | 6.66 |
| COC1(c2cccc(F)c2)CN(C(=O)c2sc3nnc(C)c(C)c3c2N)C1 [Example B299] | 35 | 6.46 |
| COCCOc1ccc(CNC(=O)c2sc3nnc(C)c(C)c3c2N)cc1 [Example B233] | 78 | 7.00 |
| COc1ccc(C2CCN(C(=O)c3sc4nnc(C)c(C)c4c3N)C2)cc1 (centres unmarked) [Example B164] | 39 | 6.55 |
| Cc1nnc2sc(C(=O)NC3CN(S(=O)(=O)c4ccco4)C3)c(N)c2c1C [Example B99] | 65 | 6.80 |
| Cc1nnc2sc(C(=O)N3CC(NC(=O)OCc4ccccc4)C3)c(N)c2c1C [Example B190] | 53 | 6.25 |

| Structure (SMILES) | Emax at 30 µM [%] | pEC50 |
| --- | --- | --- |
| Cc1nnc2sc(C(=O)NCc3ccc4ccccc4c3)c(N)c2c1C [Example B86] | 62 | 7.10 |
| Cc1nnc2sc(C(=O)N3CC(NCCC(C)C)C3)c(N)c2c1C [Example B63] | 41 | < 5.00 |
| Cc1nnc2sc(C(=O)NC3CN(C(=O)Cc4cccs4)C3)c(N)c2c1C [Example B154] | 88 | 7.15 |
| Cc1nnc2sc(C(=O)NC3CN(C(=O)Nc4ccc(F)cc4)C3)c(N)c2c1C [Example B351] | 57 | 7.49 |
| Cc1nnc2sc(C(=O)NCc3ccc(S(=O)(=O)C(F)F)c(Cl)c3)c(N)c2c1C [Example B489] | 73 | 7.46 |
| Cc1cccc(N2CCC(NC(=O)c3sc4nnc(C)c(C)c4c3N)C2)c1 (centres unmarked) [Example B265] | 60 | 6.92 |
| Cc1nnc2sc(C(=O)NCc3ccc(OC(F)F)nc3)c(N)c2c1C [Example B412] | 85 | 7.17 |
| Cc1nnc2sc(C(=O)NCC3CCS(=O)(=O)C3)c(N)c2c1C (centres unmarked) [Example B148] | 50 | < 5.00 |
| Cc1nnc2sc(C(=O)NC(C)(C)C)c(N)c2c1C [Example B68] | 68 | 5.59 |
| Cc1nnc2sc(C(=O)NC3CN(S(=O)(=O)c4ccc(C(F)(F)F)cc4)C3)c(N)c2c1C [Example B147] | 95 | 7.06 |
| Cc1nnc2sc(C(=O)NCc3ccc(-c4ccccc4)cc3)c(N)c2c1C [Example B472] | 64 | 6.64 |
| Cc1nnc2sc(C(=O)NC3CN(C(=O)Oc4ccccc4)C3)c(N)c2c1C [Example B151] | 57 | 8.02 |
| Cc1nnc2sc(C(=O)NCc3ccc4[nH]c(C)c(C)c4c3)c(N)c2c1C [Example B250] | 75 | 6.72 |
| Cc1nnc2sc(C(=O)NC3CCN(c4ccccc4F)C3)c(N)c2c1C (centres unmarked) [Example B339] | 74 | 7.12 |
| Cc1nnc2sc(C(=O)NC3CN(C(=O)c4cccs4)C3)c(N)c2c1C [Example B128] | 78 | 7.51 |
| Cc1nnc2sc(C(=O)NCCN(C)S(=O)(=O)c3ccc(F)cc3)c(N)c2c1C [Example B358] | 49 | 5.35 |
| Cc1nnc2sc(C(=O)N[C@@H]3CCN(S(C)(=O)=O)C3)c(N)c2c1C [Example B77] | 53 | 5.46 |
| Cc1nnc2sc(C(=O)NCCNC(=O)c3ccccc3)c(N)c2c1C [Example B347] | 59 | 5.82 |
| Cc1nnc2sc(C(=O)NCCN(C)S(C)(=O)=O)c(N)c2c1C [Example B344] | 41 | < 5.00 |
| Cc1ccc(OC(=O)N2CC(NC(=O)c3sc4nnc(C)c(C)c4c3N)C2)cc1 [Example B342] | 67 | 8.05 |

— patent US9868746B2, “Substituted 5-aminothieno[2,3-C]pyridazine-6-carboxamide analogs as positive allosteric modulators of the muscarinic acetylcholine receptor M4” (Vanderbilt University, priority 2012, dated 2018)
